Calls of active or inactive are those of the source. The calls are words filed in the database; no cut-off is given here.
Assays:
J774.A1 [1] = experiment: Antiinflammatory activity against mouse J774.A1 cells assessed as inhibition of LPS-induced IL-6 production pretreated with compound for 30 mins followed by LPS induction and measured after 24 hrs by ELISA analysis; assay type: functional; settings: for inhibition (INH): time 1470 min, 24.5 h; on INH: test concentration or dose not given here
J774.A1 [2] = experiment: Antiinflammatory activity against mouse J774.A1 cells assessed as inhibition of LPS-induced TNF-alpha production pretreated with compound for 30 mins followed by LPS induction and measured after 24 hrs by ELISA analysis; assay type: functional; settings: for inhibition (INH): time 1470 min, 24.5 h; on INH: test concentration or dose not given here
J774.A1 [3] = experiment: Antiinflammatory activity against mouse J774.A1 cells assessed as inhibition of LPS-induced IL-6 release preincubated with compound for 30 mins followed by LPS-induction and measured after 24 hrs by ELISA analysis; assay type: functional, cell-based
J774.A1 [4] = experiment: Antiinflammatory activity against mouse J774.A1 cells assessed as inhibition of LPS-induced TNF-alpha release preincubated with compound for 30 mins followed by LPS-induction and measured after 24 hrs by ELISA analysis; assay type: functional, cell-based
J774.A1 [5] = experiment: Antiinflammatory activity against LPS-induced mouse J774.A1 cells assessed as effect on IL-6 mRNA level preincubated with compound for 30 mins followed by LPS-induction and measured after 6 hrs by qPCR analysis; assay type: functional, cell-based; settings: time 390.0 min

Structure (SMILES) | inhibition (INH) (J774.A1 [1]) | inhibition (INH) (J774.A1 [2]) | also measured
O=C(CN1CCN(Cc2cccc([N+](=O)[O-])c2)CC1)Nc1cccc2ccccc12 | 36.57% | 49.62% | 
O=C(CCN1CCN(c2ccc([N+](=O)[O-])cc2)CC1)NCc1ccccn1 | 19.64% | 20.88% | 
COc1ccc(NC(=O)CN2CCN(Cc3cnc(NC(C)=O)s3)CC2)cn1 | 47.13% | 53.08% | 
COc1ccc(CN2CCN(CCS(=O)(=O)NCc3ccccn3)CC2)cc1 | 44.03% | 35.94% | 
O=[N+]([O-])c1ccc(CN2CCN(CCS(=O)(=O)NCc3ccccn3)CC2)cc1 | 49.16% | 41.37% | 
O=C(CN1CCN(Cc2ccccc2)CC1)Nc1cccc2ccccc12 | 37.08% | 40.65% | 
O=C(CN1CCN(Cc2ccc([N+](=O)[O-])cc2)CC1)Nc1cccc2ccccc12 | 51.42% | 44.12% | 
COc1ccc(NS(=O)(=O)CCN2CCN(c3ccc([N+](=O)[O-])cc3)CC2)cn1 | 54.03% | 47.01% | 
O=[N+]([O-])c1cccc(CN2CCN(c3ccc(S(=O)(=O)NCc4ccccn4)cc3[N+](=O)[O-])CC2)c1 | 71.33% | 43.51% | IC50 (J774.A1 [3]): 1380 nM; IC50 (J774.A1 [4]): 3.99 µM; Activity (J774.A1 [5]): inactive
O=C(CCN1CCN(Cc2ccc([N+](=O)[O-])cc2)CC1)NCc1ccccn1 | 36.81% | 25.79% | 
O=C(CN1CCN(c2ccc([N+](=O)[O-])cc2)CC1)Nc1ccccn1 | 54.4% | 41.4% | 
COc1ccc(NS(=O)(=O)CCN2CCN(Cc3ccccc3)CC2)cn1 | 13.57% | 16.24% | 
O=C(CCN1CCN(c2ccc([N+](=O)[O-])cc2)CC1)Nc1cccc2ccccc12 |  |  | inhibition (J774.A1 [1]; time 1470.0 min): inactive; inhibition (J774.A1 [2]; time 1470.0 min): inactive
COc1ccc(CN2CCN(c3ccc(S(=O)(=O)NCc4ccccn4)cc3[N+](=O)[O-])CC2)cc1 | 53.8% | 18.06% | 
O=[N+]([O-])c1ccc(CN2CCN(CCS(=O)(=O)Nc3ccc4ncccc4c3)CC2)cc1 | 58.07% | 24.49% | 
COc1ccc(CN2CCN(CC(=O)NCc3ccccn3)CC2)cc1 | 3.21% | 38.64% | 
COc1ccc(CN2CCN(CCS(=O)(=O)Nc3ccc4ncccc4c3)CC2)cc1 | 50.52% | 31.97% | 
O=[N+]([O-])c1ccc(N2CCN(CCS(=O)(=O)NCc3ccccn3)CC2)cc1 | 60.1% | 51.16% | 
O=[N+]([O-])c1ccc(N2CCN(CCS(=O)(=O)Nc3cccc4ccccc34)CC2)cc1 | 54.08% | 48.59% | 
COc1ccc(NC(=O)CN2CCN(Cc3cccc([N+](=O)[O-])c3)CC2)cn1 | 20.88% | 41.2% | 
O=[N+]([O-])c1cccc(CN2CCN(CCS(=O)(=O)Nc3cccc4ccccc34)CC2)c1 | 39.74% | 48.04% | 
O=[N+]([O-])c1ccc(N2CCN(CCS(=O)(=O)Nc3ccc4ncccc4c3)CC2)cc1 | 63.27% | 41.31% | 
O=C(CN1CCN(Cc2ccc([N+](=O)[O-])cc2)CC1)NCc1ccccn1 | 36.43% | 42.8% | 
O=C(CN1CCN(Cc2cccc([N+](=O)[O-])c2)CC1)NCc1ccccn1 | 21.88% | 39.82% | 
CC(=O)Nc1ncc(CN2CCN(CCS(=O)(=O)Nc3cccc4ccccc34)CC2)s1 | 43.92% | 25.56% | 
O=[N+]([O-])c1ccc(CN2CCN(CCS(=O)(=O)Nc3cccc4ccccc34)CC2)cc1 | 51.66% | 52.22% | 
O=C(CCN1CCN(Cc2ccccc2)CC1)Nc1cccc2ccccc12 | 50.93% | 55.28% | 
COc1ccc(NC(=O)CN2CCN(c3ncccn3)CC2)cn1 | 33.21% | 47.96% | 
COc1ccc(CN2CCN(CCS(=O)(=O)Nc3ccc(OC)nc3)CC2)cc1 | 55.78% | 39.86% | 

Source: ChEMBL document CHEMBL5625228, “Design, synthesis, and bioactivity evaluation of novel amide/sulfonamide derivatives as potential anti-inflammatory agents against acute lung injury and ulcerative colitis” (Eur J Med Chem, 2023)
